Each structure is given as a SMILES string. In brackets after ≈: the same amount, converted by molar mass. Counter-ions that a name gives are not always drawn.

The source of these data is patent US5187188A, “Oxazole carboxylic acid derivatives” (Bristol-Myers Squibb Company, priority 1992, dated 1993).

This test concerns human platelets. Nature of the test: In vitro inhibition of ADP-induced human platelet aggregation in platelet-rich plasma (aggregometer method of Born). The test is classed as cell-based. The settings on record: human PRP, 0.5 mcg/mL ADP, about three minutes preincubation. As for the experimental part: The aggregometer method of Born, G. V. R., J. Physiol., (London), 162, 67-68, (1962) as modified by Mustard, J. F., et al., J. Lab. Clin. Med., 64, 548-599, (1964) Was used to assess the in vitro activity of the various compounds as to the inhibition of adenosine diphosphate (ADP) and collagen-induced platelet aggregation. The human volunteer donor's arm is cleansed with 70% ethyl alcohol. A sterile 20 ml syringe and needle are used to withdraw 20 ml of blood. The blood is immediately added to a test tube containing 3.8% sodium citrate to prevent clotting (1 part citrate to 9 parts blood).
Platelet rich plasma (PRP) was separated by centrifugation for 10 minutes at 1000 rpm (140×g) from citrated (3.8%) human blood. All glassware used for preparation of PRP is silicon treated. ADP in final concentration of 0.5 mcg/mL or 0.05 mL of a collagen suspension prepared according to the method described by Evans, G., et al., J. Exp. Med., 128, 877-894, (1968) was used to induce aggregation. The various compounds tested were dissolved in dimethylsulfoxide (DMSO) so that 5 mcl added to the platelet rich plasma would yield the desired test concentration. Vehicle control trials were done and compared with aggregation induced in platelet rich plasma containing various concentrations of the test compounds. Dose response curves were obtained and Inhibitor Concentration (IC50) values calculated.
The compounds listed in Table 1 were evaluated as inhibitors of human platelet aggregation in vitro in platelet-rich-plasma (PRP) using […] ADP as the inducing agent. The PRP was incubated with drug for about three minutes prior to the addition of the agonist. The extent of aggregation in the presence of various concentrations of test compounds was compared with that in vehicle controls. Dose-response curves were obtained and IC50 values determined.
On to `CCOC(=O)C(=Cc1cccc(OCC(=O)OC(C)(C)C)c1)c1nc(-c2ccccc2)c(-c2ccccc2)o1` [Compound 7a, (E) and (Z)-Ethyl α-[[3-[[(1,1-dimethylethoxy)carbonyl]methoxyl]phenyl]methylene]-4,5-diphenyl-2-oxazoleacetate], for which the IC50 was above 32 µg/mL.

The compound `CCOC(=O)/C(=C\c1cccc(OCC(=O)OC)c1)c1nc(-c2ccccc2)c(-c2ccccc2)o1` [Compound 7b, (Z)-Ethyl-α-[[3-(2-methoxy-2-oxoethoxy)phenyl]methylene]-4,5-diphenyl-2-oxazole acetate] showed an IC50 of 10 µg/mL.

Consider `CCOC(=O)/C(=C/c1cccc(OCC(=O)OC)c1)c1nc(-c2ccccc2)c(-c2ccccc2)o1` [Compound 7c, (E)-Ethyl α-[[3-(2-methoxy-2-oxoethoxy)phenyl]methylene]-4,5-diphenyl-2-oxazole acetate], for which 1 µg/mL corresponded to half-maximal inhibition (IC50). Compared with the last compound, the IC50 is about 10-fold lower.

As to `COC(=O)COc1cccc(C=C(C(=O)OC)c2nc(-c3ccccc3)c(-c3ccccc3)o2)c1` [Compound 7d, Methyl (E) and (Z) α-[[3-(2-methoxy-2-oxoethoxy)phenyl]methylene]-4,5-diphenyl-2-oxazoleacetate], half-maximal inhibition (IC50) required 0.5 µg/mL (≈ 1.06 µM). Compared with the last compound, the IC50 is about 2-fold lower.

The compound `CC(C)OC(=O)C(=Cc1cccc(OCC(=O)OC(C)(C)C)c1)c1nc(-c2ccccc2)c(-c2ccccc2)o1` [Compound 7e, (E) and (Z)-1-methylethyl α-[[3-[2-(1,1,-dimethylethoxy)-2-oxoethoxy]phenyl]-methylene]-4,5-diphenyl-2-oxazoleacetate] yielded an IC50 above 32 µg/mL.

Turning to `COC(=O)COc1cccc(C=C(C(=O)OC(C)C)c2nc(-c3ccccc3)c(-c3ccccc3)o2)c1` [Compound 7f, (E) and (Z) 1-Methylethyl α-[[3-[2-(methoxy-2-oxoethoxy)phenyl]methylene]-4,5-diphenyl-2-oxazoleacetate], the IC50 is 5 µg/mL (≈ 10 µM).

Regarding `COC(=O)COc1cccc(C=C(C(N)=O)c2nc(-c3ccccc3)c(-c3ccccc3)o2)c1` [Compound 7g, (E) and (Z) Methyl [3-[3-amino-2-(4,5-diphenyl)-2-oxazolyl]-3-oxo-1-propenyl]phenoxy]acetate], half-maximal inhibition (IC50) was put at 2.5 µg/mL (≈ 5.5 µM). This IC50 lies about 2-fold lower than the previous one.

In turn, `CNC(=O)C(=Cc1cccc(OCC(=O)OC)c1)c1nc(-c2ccccc2)c(-c2ccccc2)o1` [Compound 7h, (E) and (Z) Methyl [3-[2-(4,5-diphenyl-2-oxazolyl)-3-methylamino-3-oxo-propenyl]phenoxy]acetate] yielded an IC50 of 1.3 µg/mL (≈ 2.77 µM).

As to `COC(=O)COc1cccc(/C=C(\C(=O)N(C)C)c2nc(-c3ccccc3)c(-c3ccccc3)o2)c1` [Compound 7i, (Z)-Methyl [3-[3-(dimethylamino)-2-(4,5-diphenyl-2-oxazolyl)-3-oxo-1-propenyl]phenoxy]acetate], the IC50 is above 32 µg/mL.

The compound `CCOC(=O)C(=Cc1cccc(OCC(=O)O)c1)c1nc(-c2ccccc2)c(-c2ccccc2)o1` [Compound 8a, (E) and (Z) Ethyl α-[[3-carboxymethoxy)phenyl]methylene]-4,5-diphenyl-2-oxazole acetate] displayed an IC50 of 0.17 µg/mL.

The compound `O=C(O)COc1cccc(C=C(C(=O)O)c2nc(-c3ccccc3)c(-c3ccccc3)o2)c1` [Compound 8b] gave an IC50 of 9 µg/mL (≈ 20.4 µM). Against the preceding compound, the IC50 is about 53-fold higher.

`CNC(=O)C(=Cc1cccc(OCC(=O)O)c1)c1nc(-c2ccccc2)c(-c2ccccc2)o1` [Compound 8d, (E) and (Z) [3-[2-(4,5-Diphenyl-2-oxazolyl)-3-(methylamino)-3-oxo-propenyl]phenoxy]acetic acid] yielded an IC50 of 7 µg/mL (≈ 15.4 µM).

Consider `CN(C)C(=O)/C(=C\c1cccc(OCC(=O)O)c1)c1nc(-c2ccccc2)c(-c2ccccc2)o1` [Compound 8e, (Z)-[3-[3-(Dimethylamino)-2-(4,5-diphenyl-2-oxazolyl)-3-oxo-1-propenyl]phenoxy]acetic acid], for which inhibition was half-maximal at 5.8 µg/mL (≈ 12.4 µM) (IC50).

`CCOC(=O)C(Cc1cccc(OCC(=O)OC(C)(C)C)c1)c1nc(-c2ccccc2)c(-c2ccccc2)o1` (stereo not shown) [Compound 9a] returned an IC50 above 32 µg/mL.

In turn, `CCOC(=O)C(Cc1cccc(OCC(=O)OC)c1)c1nc(-c2ccccc2)c(-c2ccccc2)o1` (stereo not drawn) [Compound 9b, Ethyl α-[(3-[(methoxycarbonyl)methoxyl]phenyl]-methyl]-4,5-diphenyl-2-oxazole acetate] gave an IC50 of 0.75 µg/mL.

Turning to `COC(=O)C(Cc1cccc(OCC(=O)OC(C)(C)C)c1)c1nc(-c2ccccc2)c(-c2ccccc2)o1` (stereo not drawn) [Compound 9c, Methyl α-[[3-(2-(1,1-dimethylethoxy-2-oxoethoxy)phenyl]methyl]-4,5-diphenyl-2-oxazole acetate], the IC50 is above 32 µg/mL.

Regarding `COC(=O)COc1cccc(CC(C(=O)OC)c2nc(-c3ccccc3)c(-c3ccccc3)o2)c1` (stereo not drawn) [Compound 9d, Methyl α-[[3-(2-methoxy-2-oxoethoxy)phenyl]methyl]-4,5-diphenyl-2-oxazole acetate], half-maximal inhibition (IC50) required 0.6 µg/mL.

`CC(C)OC(=O)C(Cc1cccc(OCC(=O)OC(C)(C)C)c1)c1nc(-c2ccccc2)c(-c2ccccc2)o1` (stereo not drawn) [Compound 9e, 1-Methylethyl α-[[3-[2-(1,1-dimethylethoxy)-2-oxoethoxy)phenyl]methyl]-4,5-diphenyl-2-oxazoleacetate] had a concentration for half-maximal inhibition (IC50) above 32 µg/mL.

With `COC(=O)COc1cccc(CC(C(=O)OC(C)C)c2nc(-c3ccccc3)c(-c3ccccc3)o2)c1` (stereo not shown) [Compound 9f], the IC50 is 3.5 µg/mL (≈ 7.01 µM).

`CC(C)(C)OC(=O)COc1cccc(CC(C(N)=O)c2nc(-c3ccccc3)c(-c3ccccc3)o2)c1` (stereo not shown) [Compound 9g, (t-Butyl [3-3-amino-2-(4,5-diphenyl-2-oxazolyl)-3-oxopropyl]phenoxy acetate] registered an IC50 above 32 µg/mL.

`COC(=O)COc1cccc(CC(C(N)=O)c2nc(-c3ccccc3)c(-c3ccccc3)o2)c1` (stereo not drawn) [Compound 9h, Methyl[3-[α-Amino-2-(4,5-diphenyl-2-oxazolyl)-3-oxopropyl]phenoxy]acetic acid] had an IC50 above 32 µg/mL.

`CNC(=O)C(Cc1cccc(OCC(=O)OC)c1)c1nc(-c2ccccc2)c(-c2ccccc2)o1` (stereo not shown) [Compound 9i, Methyl[3-[2-(4,5-diphenyl-2-oxazolyl)-3-(methylamino)-3-oxo-propyl]phenoxy]acetate] gave an IC50 of 3.5 µg/mL (≈ 7.44 µM).

In turn, `COC(=O)COc1cccc(CC(C(=O)N(C)C)c2nc(-c3ccccc3)c(-c3ccccc3)o2)c1` (stereo not shown) [Compound 9j] yielded an IC50 of 16 µg/mL (≈ 33 µM).

As to `CCOC(=O)C(Cc1cccc(OCC(=O)O)c1)c1nc(-c2ccccc2)c(-c2ccccc2)o1` (stereo not drawn) [Compound 10a, Ethyl α-[[3-hydroxy-2-oxoethoxyl]phenyl]methyl]-4,5-diphenyl-2-oxazole ace tate], 0.06 µg/mL (≈ 0.127 µM) corresponded to half-maximal inhibition (IC50).

For the compound `O=C(O)COc1cccc(CC(C(=O)O)c2nc(-c3ccccc3)c(-c3ccccc3)o2)c1` (stereo not drawn) [Compound 10b, α-[[3-(2-Hydroxy-2-oxoethoxy)phenyl]methyl]-4,5-diphenyl-2-oxazoleacetic acid, disodium salt], the IC50 turned out to be 7 µg/mL.

The compound `COC(=O)C(Cc1cccc(OCC(=O)O)c1)c1nc(-c2ccccc2)c(-c2ccccc2)o1` (stereo not drawn) [Compound 10c, Methyl α-[[3-(2-hydroxy-2-oxoethoxy)phenyl]methyl]-4,5-diphenyl-2-oxazole acetate] yielded an IC50 of 0.037 µg/mL. Compared with the last compound, the IC50 is about 190-fold lower.

Compound `CC(C)OC(=O)C(Cc1cccc(OCC(=O)O)c1)c1nc(-c2ccccc2)c(-c2ccccc2)o1` (stereo not shown) [Compound 10d] gave a 50% inhibitory concentration (IC50) of 0.6 µg/mL (≈ 1.24 µM).

Regarding `NC(=O)C(Cc1cccc(OCC(=O)O)c1)c1nc(-c2ccccc2)c(-c2ccccc2)o1` (stereo not shown) [Compound 10e, [3-[3-Amino-2-(4,5-diphenyl-2-oxazolyl)-3-oxopropyl]phenoxy]acetic acid], the IC50 was determined as 1.7 µg/mL (≈ 3.84 µM). Against the preceding compound, the IC50 is about 2.8-fold higher.

`CNC(=O)C(Cc1cccc(OCC(=O)O)c1)c1nc(-c2ccccc2)c(-c2ccccc2)o1` (stereo not shown) [Compound 10f, [3-[2-(4,5-Diphenyl-2-oxazolyl)-3-(methylamino)-3-oxopropyl]phenoxy]acetic acid] returned an IC50 of 0.32 µg/mL (≈ 0.701 µM).

`CN(C)C(=O)C(Cc1cccc(OCC(=O)O)c1)c1nc(-c2ccccc2)c(-c2ccccc2)o1` (stereo not shown) [Compound 10g, [3-[3-(Dimethylamino)-2-(4,5-diphenyl-2-oxazolyl)-3-oxopropyl]phenoxy]acetic acid] registered an IC50 of 1.7 µg/mL (≈ 3.61 µM).

`COC(=O)COc1cccc(/C=C(\C#N)c2nc(-c3ccccc3)c(-c3ccccc3)o2)c1` [Compound 16, (E)-Methyl[3-[2-cyano-2-(4,5-diphenyl-2-oxazolyl)ethenyl]phenoxy]acetate] gave an IC50 of 8 µg/mL (≈ 18.3 µM).

As for `N#C/C(=C\c1cccc(OCC(=O)O)c1)c1nc(-c2ccccc2)c(-c2ccccc2)o1` [Compound 17, (E)-[3-[2-cyano-2-(4,5-diphenyl-2-oxazolyl)ethenyl]phenoxy]acetic acid], the IC50 is 0.11 µg/mL (≈ 0.26 µM).

Regarding `COC(=O)COc1cccc(CC(C#N)c2nc(-c3ccccc3)c(-c3ccccc3)o2)c1` (stereo not shown) [Compound 18], the IC50 was determined as 0.36 µg/mL (≈ 0.821 µM).

As to `N#CC(Cc1cccc(OCC(=O)O)c1)c1nc(-c2ccccc2)c(-c2ccccc2)o1` (stereo not shown) [Compound 19, [3-[2-Cyano-2-(4,5-diphenyl-2-oxazolyl)ethyl]phenoxy]acetic acid], the IC50 turned out to be 0.2 µg/mL (≈ 0.471 µM). Compared with the last compound, the IC50 is about 1.8-fold lower.

What is called IC50 is the midpoint of a concentration-inhibition curve.
